Experimental findings from ChEMBL document CHEMBL3259634, “Novel benzopolycyclic amines with NMDA receptor antagonist activity” (Bioorg Med Chem, 2014) are described below.

As a reminder, the IC50 is the concentration that inhibits the measured activity by half.

This test concerns the target Glutamate NMDA receptor. Description: Antagonist activity at NMDA receptor in primary culture of rat cerebellar granule neurons assessed as inhibition of NMDA-induced intracellular calcium level by fluorescence spectrophotometric analysis. The class given is cell-based.
Take `NC12CC3CC(O)(CC(C1)c1ccccc13)C2`: the IC50 was 16.2 µM. Next, `CN(C)C12CC3CC(O)(CC(C1)c1ccccc13)C2`: 71.1 µM.

Turning to `NC12CC3CC(F)(CC(C1)c1ccccc13)C2`, the IC50 amounted to 1.93 µM. Next, `CN(C)C12CC3CC(F)(CC(C1)c1ccccc13)C2`: 16.5 µM; `COC12CC3CC(N)(CC(C1)c1ccccc13)C2`: 24.3 µM. `NC12CC3CC(C1)c1ccccc1C(C3)C2`: the IC50 was determined as 0.7 µM. Next, `CN(C)C12CC3CC(C1)c1ccccc1C(C3)C2`: 2.3 µM.
